A value given as a limit tells only on which side of the number the result lay.

One assay concerns diabetic ob/ob mice. The experiment in a line: Blood glucose in adult male diabetic ob/ob mice. Type of assay: in vivo. Conditions: 10 mg/kg orally at 12-hr intervals, 5 doses, pantothenate-deficient chow, in 30% Captisol; non-diabetic range 120±20 mg/dL. As for the experimental part: Compound was administered orally at 12-hr intervals for a total of 5 doses starting at T=0 hr. Blood glucose from the tail vein was measured just prior to each administration. Compound was formulated in 30% Captisol (o); 30% Captisol only (•).
As to `CC(C)c1ccc(CC(=O)N2CCN(c3ccc(C#N)nn3)CC2)cc1` [6-(4-(2-(4-isopropylphenyl)acetyl)piperazin-1-yl)pyridazine-3-carbonitrile], the blood glucose level result is recorded as “reduces the blood glucose level to values within the range of non-diabetic mice”.

The target in another assay is hPanK3 (Homo sapiens, UniProt Q9H999). Kind of assay: Inhibition of PanK kinase activity (phosphorylation of pantothenate, purified protein). Type of assay: biochemical.
hPanK3, sequence (Q9H999 whole entry): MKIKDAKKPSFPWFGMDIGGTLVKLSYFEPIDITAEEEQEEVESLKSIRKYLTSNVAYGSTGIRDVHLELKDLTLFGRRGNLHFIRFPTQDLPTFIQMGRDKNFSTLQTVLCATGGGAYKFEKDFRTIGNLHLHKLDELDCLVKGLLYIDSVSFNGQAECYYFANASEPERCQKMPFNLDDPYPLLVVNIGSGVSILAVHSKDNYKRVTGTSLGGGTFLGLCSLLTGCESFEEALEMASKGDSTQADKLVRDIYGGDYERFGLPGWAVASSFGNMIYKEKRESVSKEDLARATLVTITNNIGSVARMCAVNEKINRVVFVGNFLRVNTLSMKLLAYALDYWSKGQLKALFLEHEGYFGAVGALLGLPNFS
Conditions: not given
`N#Cc1ccc(N2CCN(C(=O)NCc3ccco3)CC2)nc1` [Compound 25]: the IC50 (usually the midpoint of a concentration-inhibition curve) is above 10000 nM. Still for that read-out and setting: as for `CC(C)c1cc(NC(=O)N2CCN(c3ccc(C#N)cn3)CC2)on1` [Compound 27], the figure is above 10000 nM; as for `CC(C)NC(=O)N1CCN(c2ccc(C#N)cn2)CC1` [Compound 22], above 10000 nM; as for `Cc1ccc(CNC(=O)N2CCN(c3ccc(C#N)cn3)CC2)cc1` [Compound 24], above 10000 nM. Same read-out and setting: as for `CCCCCCCCNC(=O)N1CCN(c2ccc(C#N)cn2)CC1` [Compound 21], the figure is above 10000 nM; as for `CC(C)(C)NC(=O)N1CCN(c2ccc(C#N)cn2)CC1` [Compound 20], above 10000 nM. `N#Cc1ccc(N2CCN(C(=O)NC3CCCCC3)CC2)nc1` [Compound 19] registered an IC50 above 10000 nM.

Still in this assay, the particulars now being: Morrison Ki fit.
For `CC(C)(C)c1ccc(CC(=O)N2CCN(c3ccc(Cl)nn3)CC2)cc1` [Compound 74], the Ki (as a rule, a measure of affinity in units of concentration, obtained from inhibition or displacement) turned out to be 1.8 nM. Same read-out and setting: as for `CSc1cccc(CC(=O)N2CCN(c3ccc(C#N)nn3)[C@H](C)C2)c1` [Compound 135], the figure is 38 nM; as for `CC(C)c1ccc(CC(=O)N2C[C@@H](C)N(c3ccc(C#N)nn3)[C@@H](C)C2)cc1` [Compound 137], 0.27 nM.

Consider `CC(C)c1ccc(NC(=O)N2CCN(c3cnc(Cl)cn3)CC2)cc1` [Compound 113], for which the Ki turned out to be 21 nM.

In turn, `CC(C)c1ccc(CC(=O)N2CCN(c3ccc(C#N)nn3)C[C@H]2C)cc1` [Compound 121] yielded an inhibition constant (Ki) of 1.4 nM. `Cc1cc(OC(=O)N2CCN(c3ccc(C#N)nn3)CC2)ccc1C(C)C` [Compound 80] returned a Ki of 55.7 nM. On the same count and under the same terms, as for `CC(C)c1ccc(CC(=O)N2CCN(c3ccc(C#N)nn3)C(C)(C)C2)cc1` [Compound 136], the figure is 2.4 nM.

The molecule `CC(C)(C)c1ccc(C(F)(F)C(=O)N2CCN(c3ccc(C#N)nn3)CC2)cc1` [Compound 77] returned a Ki of 20.8 nM. Same read-out and setting: as for `CCC(C)c1ccc(NC(=O)N2CCN(c3ccc(C#N)nn3)CC2)cc1` (centres unmarked) [Compound 66], the figure is 7.8 nM; as for `CC(C)c1ccc(CC(=O)N[C@H]2CCN(c3ccc(C#N)nn3)C2)cc1F` [Compound 94], 1.1 nM; as for `CC(C)(C)c1ccc(CC(=O)N2CCN(c3ccc(C#N)nn3)CC2)cc1` [Compound 73], 0.97 nM. As for `CC(C)c1ccc(CC(=O)NCCNc2ccc(C#N)nn2)cc1` [Compound 90], the affinity, expressed as Ki, was 28.3 nM. Still for that read-out and setting: as for `CC(C)c1ccc(CC(=O)N2CCN(c3ccc(C#N)nn3)[C@@H](C)C2)cn1` [Compound 132], the figure is 12.6 nM; as for `CC(C)c1ccc(OC(=O)N2CCN(c3cnc(C#N)cn3)CC2)cc1` [Compound 110], 33.7 nM; as for `CC(C)c1ccc(CC(=O)N[C@H]2CCN(c3ccc(C#N)nn3)C2)cc1` [Compound 85], 7.1 nM. With `CC(C)c1ccc(CC(=O)N[C@@H]2CCN(c3ccc(C#N)nn3)C2)cc1` [Compound 86], the Ki was 26.6 nM. `CC(C)c1ccc(N(C)C(=O)N2CCN(c3ccc(C#N)nn3)CC2)cc1` [Compound 108]: the Ki worked out at 14.1 nM. As for `CC(c1ccc(CC(=O)N2CCN(c3ccc(C#N)nn3)[C@@H](C)C2)cc1)C(F)(F)F` (some centres unmarked) [Compound 144], the Ki was determined as 2.5 nM. Still for that read-out and setting: next, `CC(c1ccc(CC(=O)N2CCN(c3ccc(C#N)nn3)[C@H](C)C2)cc1)C(F)(F)F` (some centres unmarked) [Compound 145]: 1.5 nM. Molecule `CC(C)c1ccc(OC(=O)N2CCN(c3ccc(Cl)nn3)CC2)cc1` [Compound 76] gave a Ki of 1.8 nM. On the same count and under the same terms, as for `CC(C)c1ccc(CC(=O)N[C@@H]2CN(c3ccc(C#N)nn3)C[C@@H]2O)cc1` [Compound 92], the figure is 40.8 nM; as for `CC(C)c1ccc(CC(=O)NC2CCN(c3ccc(C#N)nn3)CC2)cc1` [Compound 118], 5 nM; as for `CC(C)c1ccc(CC(=O)N[C@@H]2CN(c3ccc(C#N)nn3)C[C@H]2O)cc1` [Compound 91], 35 nM. Still for that read-out and setting: as for `CC(C)c1ccc(CC(=O)N[C@H]2CCN(c3ccc(C#N)nn3)C2)c(F)c1` [Compound 100], the figure is 1.5 nM; as for `CC(C)c1ccc(CC(=O)N2CCN(c3ccc(C#N)nn3)[C@@H](C)C2)s1` [Compound 128], 1.3 nM; as for `CC(C)c1ccc(CC(=O)N2CCN(c3ccc(C#N)nn3)CC2)s1` [Compound 119], 3.3 nM. Consider `CC(C)c1ccc(CC(=O)N2CCN(c3ccc(C#N)nn3)[C@@H](C)C2)cc1` [Compound 126], for which the Ki came out at 0.09 nM. For `CC(C)c1ccc(CC(=O)N2CC[C@@H](Nc3ccc(C#N)nn3)C2)cc1` [Compound 84], the Ki was 9.1 nM.

The molecule `CC(C)c1ccc(CC(=O)N2CCN(c3ccc(C#N)nn3)C[C@@H]2C)cc1` [Compound 124] registered a Ki of 1.1 nM.

For `CC(C)c1ccc(CC(=O)N2CCN(c3ccc(C#N)nn3)[C@H](C)C2)cc1` [Compound 123], the Ki amounted to 0.13 nM. `CC(C)c1ccc(CC(=O)N2CCN(c3ccc([N+](=O)[O-])nc3)CC2)cc1` [Compound 120] showed a Ki of 0.64 nM. Take `CC(C)c1ccc(CC(=O)N2CCN(c3ccc(C#N)nn3)CC2)nc1` [Compound 82]: the affinity, expressed as Ki, was 62.5 nM. In turn, `CSc1ccc(CC(=O)N2CCN(c3ccc(C#N)nn3)[C@H](C)C2)cc1` [Compound 129] registered a Ki of 22.4 nM. As to `CC(C)c1ccc(CC(=O)N2CCN(c3cnc(Cl)cn3)CC2)s1` [Compound 122], the Ki was found to be 4.1 nM.

For the molecule `CC(C)c1ccc(CC(=O)N[C@H]2CN(c3ccc(C#N)nn3)C[C@@H]2O)cc1F` [Compound 95], the inhibition constant Ki came to 51 nM. In turn, `C[C@@H]1CN(C(=O)Cc2ccc(C(C)(C)C)cc2)CCN1c1ccc(C#N)nn1` [Compound 141] returned a Ki of 1.7 nM. The same measure, in the same setting: as for `CC(C)c1ccc(CC(=O)N2CCN(c3ccc(Cl)nn3)[C@H](C)C2)cn1` [Compound 134], the figure is 10.6 nM. `CC(C)c1ccc(CC(=O)N[C@H]2CN(c3ccc(C#N)nn3)C[C@@H]2O)cc1` [Compound 87] yielded a Ki of 12.3 nM. Still for that read-out and setting: as for `CC(C)c1ccc(OC(=O)N2CCN(c3ccc(C#N)nn3)[C@H](C)C2)cc1` [Compound 139], the figure is 4.7 nM; as for `C[C@H]1CN(C(=O)Cc2ccc(C(C)(C)C)cc2)CCN1c1ccc(C#N)nn1` [Compound 140], 1 nM. Same read-out and setting: as for `CC(C)c1ccc(CC(=O)N2CCN(c3ncc(Cl)nc3N)CC2)cc1` [Compound 116], the figure is 12.5 nM; as for `CC(C)c1ccc(OC(=O)N2CCN(c3ccc(C#N)nn3)[C@@H](C)C2)cc1` [Compound 138], 7.6 nM. The molecule `CC(C)c1ccc(NC(=O)N[C@H]2CCN(c3ccc(C#N)nn3)C2)cc1` [Compound 88] registered a Ki of 36.3 nM. Still for that read-out and setting: next, `CC(C)c1ccc(CC(=O)N2CCN(c3ccc(C#N)nn3)[C@H](C)C2)cn1` [Compound 131]: 9 nM. In turn, `CC(C)c1ccc(CC(=O)N[C@@H]2CN(c3ccc(C#N)nn3)C[C@H]2O)cc1F` [Compound 105] came in with a Ki of 44.8 nM.

The molecule `CC(C)c1ccc(CC(=O)N[C@H]2CCN(c3ccc(C#N)nn3)C2)cn1` [Compound 106] had a Ki of 5.9 nM. `CC(C)c1ccc(CC(=O)N2CCN(c3ccc(Cl)nn3)[C@@H](C)C2)cn1` [Compound 133] displayed a Ki of 9.7 nM.

Turning to `CC(C)c1ccc(CC(=O)N[C@@H]2CN(c3ccc(C#N)nn3)C[C@H]2O)c(F)c1` [Compound 107], the Ki was determined as 21.1 nM.

The record behind these values is patent publication US12552765B2, “Small molecule modulators of pantothenate kinases” (ST. JUDE CHILDREN'S RESEARCH HOSPITAL, INC., priority 2016, dated 2026).
